Measured values published in patent US8404707B2, “Imidazo [1, 2-a] pyrrolo [3, 2-c] pyridine compounds useful as pestivirus inhibitors” (Universite d'Auvergne Clermont 1, priority 2006, dated 2013).
In brackets after ≈: the same amount, converted by molar mass. Like-named read-outs stand apart in the source and are kept apart here. Values belong to the compound of their own block, whether it stands above or below them.

Tests used:
BVDV-1 (strain PE515) = experiment: Anti-BVDV assay (protection of MDBK cell monolayer from virus-induced cytopathic effect, MTS readout); type: cell-based, Bovine Viral Diarrhea virus; details: for EC50: Bovine viral diarrhea virus isolates and strains, MDBK, 120 h, BVDV-1 in MDBK cells, 5 days incubation, concentration that protects 50% of the cell monolayer from virus-induced cytopathic effect; for SI: Selectivity index (ratio of CC50 to EC50): CC50 (MDBK cells) / EC50 (BVDV)
Description: (§1) Madin-Darbey Bovine Kidney (MDBK) cells were maintained in Dulbecco's modified Eagle medium (DMEM) supplemented with BVDV-free 5% fetal calf serum (DMEME-FCS) at 37° C. in a humidified, 5% CO2 atmosphere. BVDV-1 (strain PE515) was used to assess the antiviral activity in MDBK cells.
Ninety-six-well cell culture plates were seeded with MDBK cells in DMEM-FCS so that cells reached 24 hr later confluency. Then medium was removed and serial 5-fold dilutions of the test compounds were added in a total volume of 100 μl, after which the virus inoculum (100 μl) was added to each well. […] Uninfected cells and cells receiving virus without compound were included in each assay plate. After 5 days, medium was removed and 90 μl of DMEM-FCS and 10 μl of MTS/PMS solution (Promega) was added to each well. Following a 2 hr incubation period at 37° C. the optical density of the wells was read at 498 nm in a microplate reader.

[1] = Determination of cytostatic effect on MDBK cells (MTS method); type: cell-based, Bovine; details: bovine, MDBK cells (exponentially growing), 3 days incubation, 50% cytostatic concentration
Description: as §1
(§2) The effect of the drugs on exponentially growing MDBK cells was assessed as follows. Cells were seeded at a density of 5000 cell/well in 96 well plates in MEM medium (Gibco) supplemented with 10% fetal calf serum, 2 mM L-glutamine (Life Technologies) and bicarbonate (Life Technologies). Cells, were cultured for 24 hr after which serial dilutions of the test compounds were added. Cultures were then again further incubated for 3 days after which the effect on cell growth was quantified by means of the MTS method (Promega). The concentration that results in 50% inhibition of cell growth is defined as the 50% cytostatic concentration (CC50)

MDBK cells = experiment: as above; type: cell-based, Bovine; details: exponentially growing MDBK cells, 3 days incubation; 50% cytostatic concentration
Description: as §1, §2

Compound: CCOC(=O)c1cc2c3n(ccc-2n1)CC(C)=N3 [Compound 7b, Ethyl 2-methylimidazo[1,2-a]pyrrolo[3,2-c]pyridine-8-carboxylate]
melting point: 201 to 203 °C
EC50 (BVDV-1 (strain PE515); read-out: EC50): 0.8 µg/mL (≈ 3.29 µM)
SI: Selectivity index (ratio of CC50 to EC50) (BVDV-1 (strain PE515)): ±81
CC50 at 3 days [1]: 65 µg/mL (≈ 267 µM)

Compound: CC1=Nc2c3cc(-c4ccc(F)cc4)nc-3ccn2C1 [Compound 27b, 8-(4-fluorophenyl)-2-methylimidazo[1,2-a]pyrrolo[3,2-c]pyridine]
EC50 (BVDV-1 (strain PE515); read-out: EC50): 1.27 µg/mL (≈ 4.79 µM)
SI: Selectivity index (ratio of CC50 to EC50) (BVDV-1 (strain PE515)): ±37
CC50 at 3 days [1]: 47.5 µg/mL (≈ 179 µM)

Compound: CCOC(=O)c1cc2c3n(ccc-2n1)CC(CO)=N3 [Compound 11, Ethyl 2-hydroxymethylimidazo[1,2-a]pyrrolo[3,2-c]pyridine-8-carboxylate]
melting point: 227 to 229 °C
EC50 (BVDV-1 (strain PE515); read-out: EC50): 9 µg/mL (≈ 34.7 µM)
SI: Selectivity index (ratio of CC50 to EC50) (BVDV-1 (strain PE515)): ±10
CC50 at 3 days [1]: 87 µg/mL (≈ 336 µM)

melting point: 158 to 159 °C
Compound: CCOC(=O)n1c(-c2ccc(OC)cc2)cc2c1ccn1cc(C)nc21

Compound: CCOC(=O)c1cc2c(ccn3cc(CN(C)C)nc23)[nH]1 [Compound 9, Ethyl 2-N,N dimethylaminomethylimidazo[1,2-a]pyrrolo[3,2-c]pyridine-8-carboxylate]
EC50 (BVDV-1 (strain PE515)): 3 µg/mL (≈ 10.5 µM)

Compound: CCOC(=O)c1cc2c3n(ccc-2n1)CC(C(F)(F)F)=N3 [Compound 7e, Ethyl 2-trifluoromethylimidazo[1,2-a]pyrrolo[3,2-c]pyridine-8-carboxylate]
melting point: 230 to 231 °C
EC50 (BVDV-1 (strain PE515)): 1.5 µg/mL (≈ 5.05 µM)
SI: Selectivity index (ratio of CC50 to EC50) (BVDV-1 (strain PE515)): ±33
CC50 at 3 days [1]: > 50 µg/mL

Compound: CCOC(=O)c1cc2c3n(ccc-2n1)CC(C(OCC)OCC)=N3 [Compound 7h, Ethyl 2-diethoxymethylimidazo[1,2-a]pyrrolo[3,2-c]pyridine-8-carboxylate]
melting point: 242 to 244 °C
EC50 (BVDV-1 (strain PE515); read-out: EC50): 3 µg/mL (≈ 9.05 µM)
SI: Selectivity index (ratio of CC50 to EC50) (BVDV-1 (strain PE515)): ±7
CC50 at 3 days [1]: 22 µg/mL (≈ 66.4 µM)

melting point: 162 °C
Compound: CCCCc1cc2c3n(ccc-2n1)CC(C)=N3

melting point: 168 °C
Compound: COc1ccc(-c2cc3c4n(ccc-3n2)CC(C)=N4)cc1

melting point: 198 to 200 °C
Compound: CCOC(=O)c1cc2c3n(ccc-2n1)CC(c1cccc(OC)c1)=N3

Compound: CCOC(=O)c1cc2c3n(ccc-2n1)CC(Br)=N3 [Compound 7i, Ethyl 2-bromoimidazo[1,2-a]pyrrolo[3,2-c]pyridine-8-carboxylate]
EC50 (BVDV-1 (strain PE515); read-out: EC50): 1.5 µg/mL (≈ 4.87 µM)
SI: Selectivity index (ratio of CC50 to EC50) (BVDV-1 (strain PE515)): >33
CC50 at 3 days [1]: > 50 µg/mL

Compound: CCOC(=O)n1c(-c2ccc(F)cc2)cc2c1ccn1cc(C)nc21 [Compound 26b, Ethyl 8-(4-fluorophenyl)-2-methylimidazo[1,2-a]pyrrolo[3,2-c]pyridine-7-carboxylate]
melting point: 175 °C
EC50 (BVDV-1 (strain PE515); read-out: EC50): 1.25 µg/mL (≈ 3.71 µM)
SI: Selectivity index (ratio of CC50 to EC50) (BVDV-1 (strain PE515)): ±6
CC50 at 3 days [1]: 7.9 µg/mL (≈ 23.4 µM)

melting point: 270 to 272 °C
Compound: CCOC(=O)c1cc2c3n(ccc-2n1)CC(CCl)=N3

Compound: CC1=Nc2c3cc(C(=O)O)nc-3ccn2C1 [Compound 15, 2-Methylimidazo[1,2-a]pyrrolo[3,2-c]pyridine-8-carboxylic acid]
EC50 (BVDV-1 (strain PE515); read-out: EC50): 0.5 µg/mL (≈ 2.32 µM)
CC50 (MDBK cells): >100 µg/mL
CC50 at 3 days [1]: > 100 µg/mL

Compound: CCOC(=O)c1cc2c3n(ccc-2n1)CC(C(C)C)=N3 [Compound 7f, Ethyl 2-isopropylimidazo[1,2-a]pyrrolo[3,2-c]pyridine-8-carboxylate]
melting point: 207 to 209 °C
EC50 (BVDV-1 (strain PE515); read-out: EC50): 0.6 µg/mL (≈ 2.21 µM)
SI: Selectivity index (ratio of CC50 to EC50) (BVDV-1 (strain PE515)): ±36
CC50 at 3 days [1]: 22 µg/mL (≈ 81.1 µM)
